Experimental data: BindingDB's records for doi:10.1016/j.bmc.2020.115887 (Duquesne University, 2021)

Test: Inhibition of beta3 Tubulin (unknown origin) expressed in human HeLa cell line assessed as inhibition of cell proliferation measured after 48 hrs by SRB method

SMILES | IC50 [µM]
COc1ccc(N(C)c2nc(C)nc3c2CCC3)cc1 | 0.0096
COc1ccc(N(C)c2nc(C)nc3c2CCC3)c2ccccc12 | 0.18
COc1cccc2cc(N(C)c3ncnc4c3CCC4)ccc12 | 0.043
COc1cccc2cc(N(C)c3nc(N)nc4c3CCC4)ccc12 | 0.0096
